# Experimental data published in publication PMC6508792, “Arabidopsis MATE45 antagonizes local abscisic acid signaling to mediate development and abiotic stress responses” (Plant Direct, 2018).
# Target: T1, MATE45^long (Arabidopsis thaliana, UniProt A0A1L2EGK5)
# T1 construct: gene At1g71870; long splice form ORF cloned from wild-type seedling cDNA, in pDEST42, expressed in Escherichia coli acrB
# T1 sequence (A0A1L2EGK5 1-510): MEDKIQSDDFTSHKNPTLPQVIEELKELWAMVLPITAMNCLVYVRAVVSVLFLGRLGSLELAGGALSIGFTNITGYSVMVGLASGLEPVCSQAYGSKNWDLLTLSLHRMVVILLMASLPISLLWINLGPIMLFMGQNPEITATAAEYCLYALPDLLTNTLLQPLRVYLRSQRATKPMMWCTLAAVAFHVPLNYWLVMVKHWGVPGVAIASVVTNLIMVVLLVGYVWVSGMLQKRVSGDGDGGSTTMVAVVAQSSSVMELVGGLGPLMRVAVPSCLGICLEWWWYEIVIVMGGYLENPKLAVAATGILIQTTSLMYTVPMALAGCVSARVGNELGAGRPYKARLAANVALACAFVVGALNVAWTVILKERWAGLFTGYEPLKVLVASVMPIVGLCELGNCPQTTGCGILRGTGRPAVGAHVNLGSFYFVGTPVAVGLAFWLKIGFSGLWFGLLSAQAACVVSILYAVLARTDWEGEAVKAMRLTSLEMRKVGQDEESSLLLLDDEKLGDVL
# Assay: uptake into E. coli acrB cells, LC-MS MRM
# Format: cell-based
# Settings: 0.5 uM (+)-ABA, 30 min; Venus fluorescent protein as control
compound,measurement,value
"CC1=CC(=O)CC(C)(C)C1(O)/C=C/C(C)=C\C(=O)O (stereo in doubt) [(+)-ABA, (+)‐ABA]",rate of (+)-ABA uptake,significantly higher rates of ABA uptake into E. coli cells expressing MATE45^long compared to the control
